Test results published in article PMC8915595, “Revisiting the application of Immobilized Artificial Membrane (IAM) chromatography to estimate in vivo distribution properties of drug discovery compounds based on the model of marketed drugs” (ADMET & DMPK, 2020).

Tests used:
[1] = IAM chromatography on new IAM.PC.DD2 columns (gradient HPLC, CHI (IAM)); format: physicochemical; parameters: key to CHI (IAM) “new” / P20511-014-3 CHI (IAM): CHI (IAM) from retention times calibrated to predefined CHI standards; details: for P20511-014-3 CHI (IAM): new IAM.PC.DD2 column batch P20511-014-3, pH 7.4; for R20511-014-3 CHI (IAM): new IAM.PC.DD2 column batch R20511-014-3, pH 7.4; for CHI (IAM) deviation between reference and new IAM.PC.DD2 columns / CHI (IAM) “new”: system suitability test compounds; for CHI (IAM) “new”: new IAM.PC.DD2 columns, pH 7.4
Method: The IAM binding was measured using IAM.PC.DD2 HPLC columns (Regis Technologies, Inc., IL, USA) with dimensions of 100 x 4.6 mm, particle size 10 μm with 300 Å pore size.
Two batches of IAM.PC.DD2 columns were studied (R20511-014-3 and P20511-014-3) that had been prepared using the new batches of silica support.
The retention times were standardized using the IAM calibration mixture, containing octanophenone, heptanophenone, hexanophenone, valerophenone, butyrophenone, propiophenone, acetophenone, acetanilide and paracetamol. The retention times of the compounds were plotted against the isocratically determined and predefined CHI (IAM) values listed in Table 1. The slope and intercept of the obtained straight line was used to calculate the CHI IAM values of new compounds.

[2] = target: T1, human serum albumin (HSA) (Homo sapiens, UniProt P02768); details: cited from earlier work
T1 sequence (P02768 25-609): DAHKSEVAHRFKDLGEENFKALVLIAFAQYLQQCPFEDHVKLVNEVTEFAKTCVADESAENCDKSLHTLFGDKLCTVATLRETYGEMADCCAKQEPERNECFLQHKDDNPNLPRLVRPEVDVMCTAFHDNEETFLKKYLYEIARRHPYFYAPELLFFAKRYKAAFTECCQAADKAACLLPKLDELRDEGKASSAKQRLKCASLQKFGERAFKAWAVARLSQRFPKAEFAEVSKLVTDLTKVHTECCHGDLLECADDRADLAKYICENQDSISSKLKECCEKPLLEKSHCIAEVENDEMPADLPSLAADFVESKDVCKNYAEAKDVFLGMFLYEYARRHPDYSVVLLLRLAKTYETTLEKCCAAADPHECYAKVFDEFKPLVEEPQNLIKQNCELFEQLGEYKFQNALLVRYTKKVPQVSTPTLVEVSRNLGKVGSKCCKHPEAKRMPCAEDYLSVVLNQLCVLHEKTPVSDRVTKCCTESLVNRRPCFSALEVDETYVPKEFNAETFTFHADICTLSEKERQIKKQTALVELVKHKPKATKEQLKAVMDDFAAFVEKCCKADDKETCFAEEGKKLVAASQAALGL

[3] = target: T1, human serum albumin (HSA); assay: Protein binding on chemically bonded HSA column (Chiralpak-HSA); details: remeasured in this study, pH 7.4
Method: Mobile phase A was 50 mM ammonium acetate adjusted to pH 7.4 and mobile phase B was 2-propanol. The flow rate was 1.5 mL/min and the run time was 6 min. The 2-propanol gradient was applied from 0 to 35% from 0 to 3.00 min and kept at 35% until 4.00 min.

[4] = human
[5] = reference CHI (IAM), old columns; cited from earlier work

## C[C@H]1C[C@@H]2[C@H]([C@@H](O)C[C@@]3(C)[C@H]2CC[C@]3(O)C(=O)CO)[C@@]2(C)C=CC(=O)C=C12 [Methylprednisolone]
[1]
  P20511-014-3 CHI (IAM): 30.77
  R20511-014-3 CHI (IAM): 30.91
[2]
  log K HSA from ref [13]: 0.76
[3]
  log K HSA: 0.28
[4]
  reference log Vdss: 0.16
[5]
  CHI (IAM) from ref [13]: 32.10

## COC(=O)C1=C(C)NC(C)=C(C(=O)OC(C)C)C1c1cccc2nonc12 (centres unmarked) [Isradipine]
[1]
  P20511-014-3 CHI (IAM): 39.16
  R20511-014-3 CHI (IAM): 39.11
[2]
  log K HSA from ref [13]: 2.9
[3]
  log K HSA: 3.30
[4]
  reference log Vdss: 0.13
[5]
  CHI (IAM) from ref [13]: 40.00

## C#C[C@]1(O)CC[C@H]2[C@@H]3CCc4cc(O)ccc4[C@H]3CC[C@@]21C [Ethinyl estradiol]
[1]
  P20511-014-3 CHI (IAM): 45.23
  R20511-014-3 CHI (IAM): 45.30
[2]
  log K HSA from ref [13]: 0.46
[3]
  log K HSA: 0.50
[4]
  reference log Vdss: 0.39
[5]
  CHI (IAM) from ref [13]: 46.80

## NC(N)=Nc1nc(CSCCC(N)=NS(N)(=O)=O)cs1 [Famotidine]
[1]
  P20511-014-3 CHI (IAM): 16.08
  R20511-014-3 CHI (IAM): 16.82
[2]
  log K HSA from ref [13]: 1.39
[3]
  log K HSA: 3.43
[4]
  reference log Vdss: -0.06
[5]
  CHI (IAM) from ref [13]: 15.70

## Cc1onc(-c2c(F)cccc2Cl)c1C(=O)N[C@@H]1C(=O)N2[C@@H]1SC(C)(C)[C@@H]2C(=O)O [Floxacillin]
[1]
  P20511-014-3 CHI (IAM): 24.59
  R20511-014-3 CHI (IAM): 23.76
[2]
  log K HSA from ref [13]: 0.56
[3]
  log K HSA: 0.65
[4]
  reference log Vdss: -0.56
[5]
  CHI (IAM) from ref [13]: 23.40

## Nc1ccc(S(=O)(=O)Nc2ccc(Cl)nn2)cc1 [Sulfachlorpyridazine]
[1]
  P20511-014-3 CHI (IAM): 10.83
  R20511-014-3 CHI (IAM): 10.08
[2]
  log K HSA from ref [13]: 2.04
[3]
  log K HSA: 2.20
[4]
  reference log Vdss: -0.76
[5]
  CHI (IAM) from ref [13]: 6.00

## O=C1NC(=O)C(c2ccccc2)(c2ccccc2)N1 [Phenytoin]
[1]
  P20511-014-3 CHI (IAM): 30.20
  R20511-014-3 CHI (IAM): 30.18
[2]
  log K HSA from ref [13]: 0.54
[3]
  log K HSA: 0.63
[4]
  reference log Vdss: 0.03
[5]
  CHI (IAM) from ref [13]: 31.60

## COC(=O)C1=C(C)NC(C)=C(C(=O)OCCN(C)Cc2ccccc2)C1c1cccc([N+](=O)[O-])c1 (centres unmarked) [Nicardipine]
[1]
  P20511-014-3 CHI (IAM): 43.73
  R20511-014-3 CHI (IAM): 43.82
  CHI (IAM) deviation between reference and new IAM.PC.DD2 columns: very similar
  CHI (IAM) “new”: 45.0
[2]
  log K HSA from ref [13]: 1.41
[3]
  log K HSA: 1.95
[4]
  reference log Vdss: 0.47
[5]
  CHI (IAM) from ref [13]: 45.90

## COC1=CC(=O)C[C@@H](C)[C@]12Oc1c(Cl)c(OC)cc(OC)c1C2=O [Griseofulvin]
[1]
  P20511-014-3 CHI (IAM): 30.98
  R20511-014-3 CHI (IAM): 31.06
[2]
  log K HSA from ref [13]: 0.77
[3]
  log K HSA: 0.80
[4]
  reference log Vdss: 0.12
[5]
  CHI (IAM) from ref [13]: 33.10

## CC1=NS(=O)(=O)c2cc(Cl)ccc2N1 [Diazoxide]
[1]
  P20511-014-3 CHI (IAM): 23.44
  R20511-014-3 CHI (IAM): 23.39
[2]
  log K HSA from ref [13]: 5.42
[3]
  log K HSA: 5.58
[4]
  reference log Vdss: -0.16
[5]
  CHI (IAM) from ref [13]: 24.70

## NS(=O)(=O)c1cc2c(cc1Cl)NCNS2(=O)=O [Hydrochlorothiazide]
[1]
  P20511-014-3 CHI (IAM): 13.08
  R20511-014-3 CHI (IAM): 13.04
[2]
  log K HSA from ref [13]: 0.92
[3]
  log K HSA: 1.05
[4]
  reference log Vdss: -0.13
[5]
  CHI (IAM) from ref [13]: 15.90

## Cc1ncc([N+](=O)[O-])n1CCO [Metronidazole]
[1]
  P20511-014-3 CHI (IAM): -3.24
  R20511-014-3 CHI (IAM): -2.71
[2]
  log K HSA from ref [13]: 0.66
[3]
  log K HSA: 0.72
[4]
  reference log Vdss: -0.25
[5]
  CHI (IAM) from ref [13]: -3.30

## CCC1(c2ccccc2)C(=O)NCNC1=O [Primidone]
[1]
  P20511-014-3 CHI (IAM): 10.49
  R20511-014-3 CHI (IAM): 10.31
[2]
  log K HSA from ref [13]: 3.44
[3]
  log K HSA: 4.01
[4]
  reference log Vdss: -0.15
[5]
  CHI (IAM) from ref [13]: 8.90

## CN(C)CCCN1c2ccccc2Sc2ccc(Cl)cc21 [Chlorpromazine]
[1]
  P20511-014-3 CHI (IAM): 50.94
  R20511-014-3 CHI (IAM): 51.54
  CHI (IAM) deviation between reference and new IAM.PC.DD2 columns: > 5 CHI (IAM) unit
  CHI (IAM) “new”: 54.0
[2]
  log K HSA from ref [13]: 1.18
[3]
  log K HSA: 1.27
[4]
  reference log Vdss: 2.15

## CC(O)Cn1cnc2c1c(=O)n(C)c(=O)n2C (centres unmarked) [Proxyphylline]
[1]
  P20511-014-3 CHI (IAM): 10.89
  R20511-014-3 CHI (IAM): 10.05
[2]
  log K HSA from ref [13]: 1.97
[3]
  log K HSA: 3.02
[4]
  reference log Vdss: -0.85
